Data: publication PMC7272640, “Molecular docking, synthesis and biological evaluation of Vascular Endothelial Growth Factor (VEGF) B based peptide as antiangiogenic agent targeting the second domain of the Vascular Endothelial Growth Factor Receptor 1 (VEGFR1D2) for anticancer application” (Signal Transduction and Targeted Therapy, 2020)
Where a SMILES comes first, the peptide text is derived from it.

Assays:
[1] = Body weight of tumor-bearing mice; type: in vivo, Female BALB/c mice; conditions: VGB3 0.02-0.5 mg/kg i.v., day 13 till 31; two-way ANOVA
Method: (§1) Female BALB/c mice (5–7 weeks) were purchased from the Laboratory Animal Center of the Iran Pasteur Institute and maintained under standardized environmental conditions: 12 h light-dark phases, with free access to food and water. For treatment with VGB3, Tumor cells (4T1; 1×10^6 cells/500 μl or 1×10^5 cells/50 μl) were injected subcutaneously into the right flanks of mice (n=3–5). To generate the metastatic model, 4T1 tumor models were sterilized, excised from the breast cancer-bearing BALB/c mice, cut into pieces of <0.3 cm3, and subcutaneously implanted into the animals' right flanks under ketamine (100 mg/kg, i.p.) and xylazine (10 mg/kg, i.p.) anesthesia. Animals carrying tumors of size ~100mm3 were randomized to 6 mice/group (n=6). The treatment groups received 0.02, 0.1, 0.2 or 0.5 mg/kg of VGB3 on alternate days and the control group received PBS i.v. into the mice for 19 days from day 13. The tumor volume was measured every 5 days by a digital Vernier caliper (Mitutoyo, Japan), using the following formula: v=a^2×b×0.52 (where a is the shortest and b is the longest diameter). All studies were performed under the guidelines and with the approval of the Institutional Animal Care and Use Committee (IACUC) of Tehran University of Medical Sciences.

[2] = system: 4T1 tumor tissues; test: Immunohistochemistry / TUNEL of excised 4T1 tumors; type: in vivo, Female BALB/c mice; conditions: VGB3 0.2 mg/kg vs PBS, n = 6
Method: as §1
Excised tumor tissues for immunohistochemical (IHC) analysis were fixed in formalin (4%), embedded in paraffin, sectioned, and stained with hematoxylin-eosin (H&E). IHC was followed by heat-induced epitope retrieval in a buffer at pH 9.0. IHC staining for CD31 and CD34 (to assign MVD), Ki67 (to determine the percentage of Ki67-positive cells), and P53 and Bcl-2 (to determine the fraction of apoptotic cells relative to total cells) was performed on formalin-fixed paraffin-embedded sections. Staining for cell death with TUNEL (terminal deoxynucleotidyl transferase nick-end labeling)) was performed, followed by enzymatic development in diaminobenzidine (DAB) (Invitrogen, Carlsbad, California, USA) detection and counter-staining in hematoxylin. Images were acquired by microscopy (Olympus BX-51, Japan). Numbers of positive cells were determined by analyzing five random tissue samples under scale bars 100 and 20 μm, with quantification using ImageJ.

[3] = target: VEGFR1D2; test: Microscale thermophoresis (MST) binding of VGB3 to VEGFR1D2
Method: Previously, a tight association between VEGFR1 D2 and VEGF has also been reported (113pM).[4]
The binding affinity of peptide to its cognate receptor was measured by Microscale thermophoresis (MST) on a Nanotemper Monolith NT.115 instrument (Nanotemper Technologies GmbH). Purified VEGFR1D2 was freshly labeled with the Monolith His-Tag RED-tris-NTA labeling dye according to the supplied protocol (Nanotemper Technologies, GmbH). The labeled protein was concentrated using a PES centrifugation filter (3 kDa cutoff; VWR). Measurements were done in MST buffer (50 mM Tris, 250 mM NaCl, pH=7) in standard capillaries (K002; Nanotemper Technologies GmbH). The final concentrations of either labeled protein in the assay were 25 nM. The ligands (VGB3) was titrated in 1:1 dilutions following manufacturer’s recommendations and starting from 0.25 mM. All binding reactions were incubated for 10 min at room temperature followed by centrifugation at 20,000 g before loading into capillaries. All measurements were performed in triplicate using automatically assigned 20% LED and 60% MST power; Laser On-time was 30 sec and Laser Off time was 5 sec.

[4] = system: 4T1 mammary carcinoma cells; type: cell-based, murine
Method: 2× 10^3 HUVEC and 4T1 cell-line were cultured in DMEM medium supplemented with 10% FBS at 37 °C with 5% CO2 in 96-well plate. After 24 h, The cells were incubated in the media supplemented with 2% FBS, different concentrations (0, 0.015, 0.03, 0.061 μM) of VGB3 in the presence of (0.03 μg.ml^-1) VEGF-A (Sigma, St. Louis, MO) for 24 and 48 respectively. Then, cell proliferation was quantified by 3-(4,5–dimethylthiazol-2-yl)-2 ,5-diphenyl tetrazolium bromide (MTT) (Sigma, St. Louis, MO) solution (5 mg/mL) in PBS (pH 7.4) was added to each well and the plates were incubated in the dark at 37 °C for 4 h. Then the insoluble purple formazan product was dissolved by dimethyl sulfoxide (DMSO). Absorbance was measured at 570 nm using an ELISA plate reader. The assay was performed in triplicate.

CC(C)C[C@@H]1NC(=O)CNC(=O)[C@H](CC(=O)O)NC(=O)[C@H](CC(=O)O)NC(=O)[C@@H]2CCCN2C(=O)[C@@H]2CCCN2C(=O)[C@H](CCCNC(=N)N)NC(=O)[C@@H](NC(=O)[C@@H](N)CCC(=O)O)CSSC[C@@H](C(=O)O)NC1=O [VGB3] (HELM PEPTIDE1{E.C.R.P.P.D.D.G.L.C}$PEPTIDE1,PEPTIDE1,2:R3-10:R3$$$V2.0)
body weight differences vs PBS control [1]: no significant (NS) differences
Bcl-2 expression ([2]; IHC): decreased
CD31 expression ([2]; IHC): decreased
CD34 expression ([2]; IHC): decreased
Ki67 expression ([2]; IHC): decreased
p53 expression ([2]; IHC): increased
TUNEL staining [2]: increased
Kd ([3]; MST, Monolith NT.115, His-Tag RED-tris-NTA labelled VEGFR1D2 25 nM, VGB3 titrated in 1:1 dilutions from 0.25 mM, 50 mM Tris, 250 mM NaCl, pH=7, 10 min at room temperature, triplicate, read-out: dissociation constant (Kd)): 1960 ± 690 nM
binding constant fold lower than Kd of VEGFA to entire extracellular portion of VEGFR1 ([3]; VGB3 Kd 1.96 μM vs VEGFA Kd ~50 nM): 40 fold
IC50 ([4]; 48 h): 30 nM
IC50 fold lower than that of VEGFR1D2 fragments ([4]; VGB3 IC50 30 nM in 4T1 vs ~180 nM for VEGFR1D2 fragments in HUVEC (ref 3)): 6 fold
